Measurements from patent US11365227B2, “Peptide and pharmaceutical compositions of same for use as an antimicrobial and in cancer treatment” (UNIVERSITAT DE VALÈNCIA, priority 2017, dated 2022).
Where a SMILES comes first, the peptide text is derived from it.

Columns and labels:
MDA-MB-231 tumour cells [1] = assay: Scanning and transmission electron microscopy of tumour cells; type: cell-based, human; conditions: 100 μg/mL, 72 h
Protocol: The MDA-MB-231 cells, control or treated with 100 μg/mL of PaSK, were prepared as indicated in the section “Preparation of the samples”. The cells were fixed with Karnosky (2.5% paraformaldehyde and 0.5% glutaraldehyde) for 2 h at 4° C. After washing (centrifuging and eliminating the supernatant) they were fixed with 2% osmium tetraoxide for another 2 h, washed again and filtered with a 0.2 μm filter. The cells were then dehydrated in graded ethanol series (30°, 50°, 70°, 90°, 100°) for 10 min in each gradation. To carry out the critical point drying, the ethanol was replaced with liquid CO2, the temperature was increased to accelerate evaporation and the pressure was lowered slowly to conserve the exact shape of the cells. Finally, shading with gold palladium was performed for 2 min observing the results in the equipment FEG-SEM HITACHI S4800 at 10 Kv. […]
Both scanning electron microscopy and transmission electron microscopy provide high resolution images, which were used to view the morphological and ultrastructural changes caused by the peptide PaSK in the membrane and inside of tumour cells. The MDA-MB-231 cells were treated with the peptide PaSK at a concentration of 100 μg/mL for 72 h, and were analysed using scanning electron microscopy (FIG. 14) and transmission electron microscopy (FIG. 15). […]

MDA-MB-231 tumour cells [2] = assay: Cell cycle analysis by flow cytometry (CycleTEST PLUS, ModFit LT); type: cell-based, human; conditions: 100 μg/mL, 72 h
Protocol: The MDA-MB-231 cells were cultured in dishes with 6 wells with a density of 5×10^4 cells per well, in which 200 μL or 400 μL of PaSK were added (final concentrations 100 μg/mL and 200 μg/mL) or the same volume of the medium (solvent used to dilute the peptide) in the corresponding controls. The cells were incubated at 37° C. for 72 h.
For the cell line analysis, the CycleTEST™ PLUS DNA Reagent Kit (Sigma-Aldrich) was used. Two washes were carried out using citrate buffer (containing sodium citrate, saccharose and dimethyl sulphoxide (DMSO)), centrifuging the samples in each one at 300×g for 5 min, and one final wash was performed in which the number of cells was adjusted to 5×10^5 and centrifuged at 400×g for 5 min, and then adding 250 μL of solution A (containing trypsin in a detergent buffer with spermine tetrahydrochloride), 200 μL of solution B (containing an inhibitor of trypsin and ribonuclease A, in a stabilising buffer of citrate with spermine tetrahydrochloride) and 200 μL of solution C (includes PI and the stabilising buffer with spermine tetrahydrochloride), leaving between the addition of each solution an interval of 10 min at room temperature and performing the last one, before filtering, in a cold chamber and in the dark. The analyses of cell death produced by the peptide and of the stage of cell cycle of the cells were performed with the equipment BD Facs Verse (Becton Dickinson). The cell cycle modelling was performed with the software Modfit LT, version 3.3.11. The experiments were performed in duplicate.
In this example, the cytotoxic and antiproliferative activity of the peptide PaSK is assessed by flow cytometry, performing an analysis of cell viability and an analysis of the cell cycle. After treatment of the tumour cells MDA-MB-231 with 200 μg/mL (cell viability experiments) and 100 μg/mL (analysis of cell cycle) of PaSK the percentage of viable cells was determined, as well as the stage of the cell cycle in which proliferation was stopped.

[3] = Cell viability MTS assay, cytotoxic effect; type: cell-based; conditions: mouse, HC-11 normal mammary epithelial cells, approximately 200 μM (700 μg/mL), 0.5% bovine foetal serum
Protocol: Cell viability was determined by the MTS method. The MDA-MB-231 cells cultured in plates with 96 wells at 37° C. in an atmosphere humidified with 10% CO2 to a density of 5×10^3 cells/well were incubated with different concentrations of the peptide PaSK for 24 h. Then 20 μL were added of the solution MTS/PMS (3-(4,5-dimethylthiazol-2-yl)-5-(3-carboxymethoxyfenyl)-2-(4-sulphophenyl)-2H-tetrazole/phenazine methosulphate) to each well and after incubating for 2 h in the dark the absorbance at 490 nm was read in a plate reader. The percentage reduction in number of cells was calculated according to the formula (1−E/C)×100, where E is the absorbance of the cells treated with the peptide and C is the absorbance of the samples of the control cells.
The cytotoxic effect of the peptide PaSK has been studied in two cell lines of triple-negative breast cancer cells, one human (MDA-MB-231) and one mouse (4T1), and a line of normal mouse mammary epithelial cells (HC-11). To this end, a cell viability MTS assay was performed, based on the use of a compound derived from tetrazolium that is reduced in live cells to form a soluble coloured product. […]

S. aureus = assay: Scanning electron microscopy of S. aureus cells treated with peptides; type: cell-based, Staphylococcus aureus subsp. aureus CECT 4013; conditions: 25 μg/mL, 1 h
Protocol: The cells were prepared in the same way as for the flow cytometry technique and the same aliquots and treatments were performed. The samples were incubated at 37° C. for 1 h. The bacteria were fixed with Karnosky (2.5% paraformaldehyde and 0.5 glutaraldehyde) for 2 h at 4° C. After washing (centrifuging and eliminating the supernatant) they were fixed with 2% osmium tetraoxide for another 2 h, washed again and filtered with a 0.2 μm filter. The cells were then dehydrated in graded ethanol series (30°, 50°, 70°, 90°, 100°) for 10 min in each gradation. To carry out the critical point drying, the ethanol was replaced with liquid CO2, the temperature was increased to accelerate evaporation and the pressure was lowered slowly to conserve the exact shape of the bacteria. Finally, shading with gold palladium was performed for 2 min observing the results in the equipment FEG-SEM HITACHI S4800 at 10 Kv.
Scanning electron microscopy provides high-resolution images used to view the damage caused by the peptides to the bacterial membrane. The cells of S. aureus CECT 4013 were treated with the peptides hBD-3, TcDef3-pep and PaSK at a concentration of 25 μg/mL, for 1 h, and analysed using scanning electron microscopy (FIG. 4). In cells without treatment the circular and uniform form typical of S. aureus was observed, with the intact membrane, while in treated cells various types of morphological alterations can be seen. […] With this treatment small circular structures are observed, smaller than the cells of S. aureus.

CC[C@H](C)[C@H](NC(=O)[C@H](CCCNC(=N)N)NC(=O)[C@H](CCCNC(=N)N)NC(=O)[C@H](CCCCN)NC(=O)[C@H](CC(N)=O)NC(=O)[C@H](CS)NC(=O)[C@H](Cc1ccc(O)cc1)NC(=O)CNC(=O)CNC(=O)[C@H](CCCNC(=N)N)NC(=O)[C@H](CCCCN)NC(=O)[C@H](CCCNC(=N)N)NC(=O)[C@H](CCCCN)NC(=O)[C@H](CC(C)C)NC(=O)[C@H](CC(C)C)NC(=O)[C@H](CS)NC(=O)[C@H](Cc1c[nH]cn1)NC(=O)[C@H](C)NC(=O)[C@H](C)NC(=O)[C@H](CS)NC(=O)[C@H](C)NC(=O)[C@H](C)NC(=O)[C@H](Cc1c[nH]cn1)NC(=O)[C@H](CC(N)=O)NC(=O)[C@@H](NC(=O)[C@@H](N)CCCCN)C(C)C)C(=O)N[C@@H](CS)C(=O)N[C@H](C(=O)N[C@@H](CS)C(=O)N[C@@H](CCCNC(=N)N)C(=O)N[C@@H](CC(N)=O)C(=O)O)C(C)C [PaSK] (H-KVNHAACAAHCLLKRKRGGYCNKRRICVCRN-OH; N-terminus and C-terminus assumed)
morphological and ultrastructural changes (MDA-MB-231 tumour cells [1]): significant morphological changes
percentage of cells in stage G1 (MDA-MB-231 tumour cells [2]): 57.9%
percentage of cells in stage G2 (MDA-MB-231 tumour cells [2]): 9.0%
percentage of cells in stage S (MDA-MB-231 tumour cells [2]): 33.2%
mortality at 24 h, 200 μM [3]: ~50%
biofilm formation, scanning electron microscopy (S. aureus): biofilm produced
morphological alterations, scanning electron microscopy (S. aureus): complete cell disintegration
